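GI50 marks 50% less growth. At the TGI there is no net growth.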
What was measured:
Assay in all cases: growth of human tumour cells (NCI), 384-well format
HCC-2998 colon = test system: HCC-2998 colon
NCI-H226 lung = test system: NCI-H226 lung
HS 578T breast = test system: HS 578T breast
SR leukemia = test system: SR leukemia
SK-MEL-2 melanoma = test system: SK-MEL-2 melanoma
NCI/ADR-RES ovarian = test system: NCI/ADR-RES ovarian
SN12C renal = test system: SN12C renal
MDA-MB-435 melanoma = test system: MDA-MB-435 melanoma
HCT-15 colon = test system: HCT-15 colon
PC-3 prostate = test system: PC-3 prostate
NCI-H460 NSCLC = test system: NCI-H460 NSCLC
MOLT-4 leukemia = test system: MOLT-4 leukemia
CCRF-CEM leukemia = test system: CCRF-CEM leukemia

With `FC(F)(F)c1ccc(CNc2ccc(Cc3c[nH]c4ncc(Cl)cc34)cn2)cn1` the GI50 (HCC-2998 colon) was 13.8 µM, the TGI (HCC-2998 colon) was 26.9 µM and the GI50 (NCI-H226 lung) was 5.32 µM. For the same molecule, the TGI (NCI-H226 lung) was 16.3 µM, the GI50 (HS 578T breast) was 2.15 µM and the TGI (HS 578T breast) was 7.11 µM. For the same molecule, the GI50 (SR leukemia) was 2.13 µM, the TGI (SR leukemia) was 5.5 µM and the GI50 (SK-MEL-2 melanoma) was 7.92 µM. For the same molecule, the TGI (SK-MEL-2 melanoma) was 20.4 µM, the GI50 (NCI/ADR-RES ovarian) was 9.91 µM and the TGI (NCI/ADR-RES ovarian) was 21.9 µM. The GI50 (SN12C renal) was 14 µM, the TGI (SN12C renal) was 27.1 µM and the GI50 (MDA-MB-435 melanoma) was 16.2 µM. For the same molecule, the TGI (MDA-MB-435 melanoma) was 30.1 µM, the GI50 (HCT-15 colon) was 11.4 µM and the TGI (HCT-15 colon) was 23.9 µM. For the same molecule, the GI50 (PC-3 prostate) was 12.7 µM, the TGI (PC-3 prostate) was 25.7 µM and the GI50 (NCI-H460 NSCLC) was 12.9 µM. The TGI (NCI-H460 NSCLC) was 26.1 µM, the GI50 (MOLT-4 leukemia) was 2.83 µM and the TGI (MOLT-4 leukemia) was 9.58 µM. For the same molecule, the GI50 (CCRF-CEM leukemia) was 6.19 µM and the TGI (CCRF-CEM leukemia) was 17.9 µM.
